Results taken from patent US20140243302A1, “BRIDGED BICYCLIC COMPOUNDS FOR THE TREATMENT OF BACTERIAL INFECTIONS” (priority 2011, published 2014).
Converted amounts (≈) assume the structure as drawn.

These compounds were tested on Staphylococcus aureus Smith (assay: MIC assay, modified agar dilution (CLSI), S. aureus Smith). Details: Staphylococcus aureus, agar dilution, 35° C., 16-20 hr; lowest concentration that completely inhibited growth; read-out: S_aureus_Smith_WT_MIC.
Type: cell-based
Outline: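 Strains were spotted at about 1×10^4 CFU onto compound-containing Mueller Hinton agar (two-fold series, 128-0.001 μg/mL), horse blood 5% added for pneumococcus and enterococcus. MIC read after 16-20 hr at 35 °C, following a modified CLSI agar dilution method.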

| Structure (SMILES) | MIC [µg/mL] |
| --- | --- |
| COc1ccc2ncc(F)c(CCC34CCC(NCc5ccc6c(n5)NC(=O)C(C)(C)O6)(CC3)CO4)c2n1.Cl [Example 99, 6-((1-(2-(3-Fluoro-6-methoxy-1,5-naphthyridin-4-yl)ethyl)-2-oxabicyclo[2.2.2]octan-4-ylamino)methyl)-2,2-dimethyl-2H-pyrido[3,2-b][1,4]oxazin-3(4H)-one] | 0.25 |
| COc1ccc2ncc(F)c(CCC34CCC(NCc5cc6cc(F)ccc6n(C)c5=O)(CC3)CO4)c2n1 [Example 102, 6-Fluoro-3-((1-(2-(3-fluoro-6-methoxy-1,5-naphthyridin-4-yl)ethyl)-2-oxabicyclo[2.2.2]octan-4-ylamino)methyl)-1-methylquinolin-2(1H)-one] | 2 (≈ 3.84 µM) |
| COc1ccc2ncc(F)c(CCC34CCC(NCc5c(OC)c6ccccc6n(C)c5=O)(CC3)CO4)c2n1 [Example 103, 3-((1-(2-(3-Fluoro-6-methoxy-1,5-naphthyridin-4-yl)ethyl)-2-oxabicyclo[2.2.2]octan-4-ylamino)methyl)-4-methoxy-1-methylquinolin-2(1H)-one] | 4 (≈ 7.51 µM) |
| COc1ccc2ncc(F)c(CCC34CCC(NCc5cc6ccc(Cl)cc6n(C)c5=O)(CC3)CO4)c2n1 [Example 104, 7-Chloro-3-((1-(2-(3-fluoro-6-methoxy-1,5-naphthyridin-4-yl)ethyl)-2-oxabicyclo[2.2.2]octan-4-ylamino)methyl)-1-methylquinolin-2(1H)-one] | > 8 |
| COc1ccc2ncc(F)c(CCC34CCC(NCc5cc6ccc(F)cc6n(C)c5=O)(CC3)CO4)c2n1 [Example 105, 7-Fluoro-3-((1-(2-(3-fluoro-6-methoxy-1,5-naphthyridin-4-yl)ethyl)-2-oxabicyclo[2.2.2]octan-4-ylamino)methyl)-1-methylquinolin-2(1H)-one] | 2 (≈ 3.84 µM) |
| COc1ccc2ncc(F)c(CCC34CCC(NCc5cc6c(Cl)cccc6n(C)c5=O)(CC3)CO4)c2n1 [Example 106, 5-Chloro-3-((1-(2-(3-fluoro-6-methoxy-1,5-naphthyridin-4-yl)ethyl)-2-oxabicyclo[2.2.2]octan-4-ylamino)methyl)-1-methylquinolin-2(1H)-one] | 1 (≈ 1.86 µM) |
| COc1ccc2ncc(F)c(CCC34CCC(NCc5nc6cccnc6n(C)c5=O)(CC3)CO4)c2n1.Cl [Example 108, 2-((1-(2-(3-Fluoro-6-methoxy-1,5-naphthyridin-4-yl)ethyl)-2-oxabicyclo[2.2.2]octan-4-ylamino)methyl)-4-methylpyrido[3,2-b]pyrazin-3(4H)-one Hydrochloride] | > 8 |
| Cl.O=C1COc2ccc(CNC34CCC(CCN5C(=O)COc6cccnc65)(CC3)OC4)nc2N1 [Example 109, 6-((1-(2-(3-Oxo-2H-pyrido[3,2-b][1,4]oxazin-4(3H)-yl)ethyl)-2-oxabicyclo[2.2.2]octan-4-ylamino)methyl)-2H-pyrido[3,2-b][1,4]oxazin-3(4H)-one Hydrochloride] | 8 |
| Cc1ccc2ccc(=O)n(CCC34CCC(NCc5ccc6c(n5)NC(=O)CO6)(CC3)CO4)c2n1.Cl [Example 111, 6-((1-(2-(7-Methyl-2-oxo-1,8-naphthyridin-1(2H)-yl)ethyl)-2-oxabicyclo[2.2.2]octan-4-ylamino)methyl)-2H-pyrido[3,2-b][1,4]oxazin-3(4H)-one Hydrochloride] | 0.125 |
| Cc1nnc2c(=O)n(CCC34CCC(NCc5ccc6c(n5)NC(=O)CO6)(CC3)CO4)c3ccccc3n12 [Example 117, 6-((1-(2-(1-Methyl-4-oxo-[1,2,4]triazolo[4,3-a]quinoxalin-5(4H)-yl)ethyl)-2-oxabicyclo[2.2.2]octan-4-ylamino)methyl)-2H-pyrido[3,2-b][1,4]oxazin-3(4H)-one] | 64 (≈ 124 µM) |
| O=C1COc2ccc(CNC34CCC(CCN5C(=O)N6CCCN=C6c6ccccc65)(CC3)OC4)nc2N1 [Example 118, 6-(((1-(2-(6-Oxo-3,4-dihydro-2H-pyrimido[1,2-c]quinazolin-7(6H)-yl)ethyl)-2-oxabicyclo[2.2.2]octan-4-yl)amino)methyl)-2H-pyrido[3,2-b][1,4]oxazin-3(4H)-one] | 32 (≈ 61.9 µM) |
| COc1ccc2ncc(O)c(CCC34CCC(NCc5ccc6c(n5)NC(=O)CO6)(CC3)CO4)c2n1 [Example 124, 6-(((1-(2-(3-Hydroxy-6-methoxy-1,5-naphthyridin-4-yl)ethyl)-2-oxabicyclo[2.2.2]octan-4-yl)amino)methyl)-2H-pyrido[3,2-b][1,4]oxazin-3(4H)-one] | 0.031 (≈ 0.0631 µM) |

Further compounds by falling MIC, results first:

| MIC [µg/mL] | Structure (SMILES) |
| --- | --- |
| 32 (≈ 66.7 µM) | COc1ccc2ncc(F)c(CCC34CCC(NCc5ccc6oc(=O)[nH]c6n5)(CC3)CO4)c2n1 [Example 107, 5-((1-(2-(3-Fluoro-6-methoxy-1,5-naphthyridin-4-yl)ethyl)-2-oxabicyclo[2.2.2]octan-4-ylamino)methyl)oxazolo[4,5-b]pyridin-2(3H)-one] |
| 16 (≈ 33.6 µM) | Cc1ccc2ccc(OCCC34CCC(NCc5ccc6c(n5)NC(=O)CO6)(CC3)CO4)nc2n1 [Example 113, 6-((1-(2-(7-Methyl-1,8-naphthyridin-2-yloxy)ethyl)-2-oxabicyclo[2.2.2]octan-4-ylamino)methyl)-2H-pyrido[3,2-b][1,4]oxazin-3(4H)-one] |
| 16 (≈ 34.7 µM) | O=C1COc2ccc(CNC34CCC(CCn5c(=O)ccc6cccnc65)(CC3)OC4)nc2N1 [Example 116, 6-((1-(2-(2-Oxo-1,8-naphthyridin-1(2H)-yl)ethyl)-2-oxabicyclo[2.2.2]octan-4-ylamino)methyl)-2H-pyrido[3,2-b][1,4]oxazin-3(4H)-one] |
| 4 (≈ 8.41 µM) | Cc1nccc2c1ccc(=O)n2CCC12CCC(NCc3ccc4c(n3)NC(=O)CO4)(CC1)CO2 [Example 110, 6-((1-(2-(5-Methyl-2-oxo-1,6-naphthyridin-1(2H)-yl)ethyl)-2-oxabicyclo[2.2.2]octan-4-ylamino)methyl)-2H-pyrido[3,2-b][1,4]oxazin-3(4H)-one] |
| 4 (≈ 8.41 µM) | Cc1nc2ccccc2n(CCC23CCC(NCc4ccc5c(n4)NC(=O)CO5)(CC2)CO3)c1=O [Example 114, 6-((1-(2-(3-Methyl-2-oxoquinoxalin-1(2H)-yl)ethyl)-2-oxabicyclo[2.2.2]octan-4-ylamino)methyl)-2H-pyrido[3,2-b][1,4]oxazin-3(4H)-one] |
| 2 (≈ 3.94 µM) | COc1ccc2ncc(F)c(CCC34CCC(NCc5ccc6c(n5)N(C)C(=O)CO6)(CC3)CO4)c2n1 [Example 101, 6-((1-(2-(3-Fluoro-6-methoxy-1,5-naphthyridin-4-yl)ethyl)-2-oxabicyclo[2.2.2]octan-4-ylamino)methyl)-4-methyl-2H-pyrido[3,2-b][1,4]oxazin-3(4H)-one] |
| 1 (≈ 2.04 µM) | COc1ccc2ncc(F)c(CCC34CCC(NCc5nc6ccccc6[nH]c5=O)(CC3)CO4)c2n1 [Example 97, 3-(((1-(2-(3-Fluoro-6-methoxy-1,5-naphthyridin-4-yl)ethyl)-2-oxabicyclo[2.2.2]octan-4-yl)amino)methyl)quinoxalin-2(1H)-one] |
| 1 (≈ 1.93 µM) | O=C1COc2ccc(CNC34CCC(CCn5c(=O)c6cccn6c6c(F)cccc65)(CC3)OC4)nc2N1 [Example 112, 6-((1-(2-(9-Fluoro-4-oxopyrrolo[1,2-a]quinoxalin-5(4H)-yl)ethyl)-2-oxabicyclo[2.2.2]octan-4-ylamino)methyl)-2H-pyrido[3,2-b][1,4]oxazin-3(4H)-one] |
| 1 (≈ 1.99 µM) | COc1ccc2ncc(=O)n(CCC34CCC(NCc5cc6ccccc6n(C)c5=O)(CC3)CO4)c2n1 [Example 123, 6-Methoxy-4-(2-(4-((1-methyl-2-oxo-1,2-dihydroquinolin-3-yl)methylamino)-2-oxabicyclo[2.2.2]octan-1-yl)ethyl)pyrido[3,2-b]pyrazin-3(4H)-one] |
| 0.5 (≈ 0.959 µM) | COc1cc2ncc(=O)n(CCC34CCC(NCc5ccc6c(n5)NC(=O)CO6)(CC3)CO4)c2cc1OC [Example 115, 6-((1-(2-(6,7-Dimethoxy-2-oxoquinoxalin-1(2H)-yl)ethyl)-2-oxabicyclo[2.2.2]octan-4-ylamino)methyl)-2H-pyrido[3,2-b][1,4]oxazin-3(4H)-one] |
| 0.125 (≈ 0.261 µM) | O=C1COc2ccc(CNC34CCC(CCn5c(=O)ccc6ncc(F)cc65)(CC3)OC4)nc2N1 [Example 119, 6-((1-(2-(7-Fluoro-2-oxo-1,5-naphthyridin-1(2H)-yl)ethyl)-2-oxabicyclo[2.2.2]octan-4-ylamino)methyl)-2H-pyrido[3,2-b][1,4]oxazin-3(4H)-one] |
| 0.063 (≈ 0.131 µM) | COc1ccc2ncc(=O)n(CCC34CCC(NCc5cc6c(cn5)OCCO6)(CC3)CO4)c2n1 [Example 122, 4-(2-(4-((2,3-Dihydro-[1,4]dioxino[2,3-c]pyridin-7-yl)methylamino)-2-oxabicyclo[2.2.2]octan-1-yl)ethyl)-6-methoxypyrido[3,2-b]pyrazin-3(4H)-one] |
| 0.016 (≈ 0.0313 µM) | COc1ccc2ncc(F)c(CCC34CCC(NCc5nc6c(cc5F)OCC(=O)N6)(CC3)CO4)c2n1 [Example 98, 7-Fluoro-6-(((1-(2-(3-fluoro-6-methoxy-1,5-naphthyridin-4-yl)ethyl)-2-oxabicyclo[2.2.2]octan-4-yl)amino)methyl)-2H-pyrido[3,2-b][1,4]oxazin-3(4H)-one] |
| 0.016 (≈ 0.0326 µM) | COc1cnc2ccc(=O)n(CCC34CCC(NCc5ccc6c(n5)NC(=O)CO6)(CC3)CO4)c2c1 [Example 120, 6-(((1-(2-(7-Methoxy-2-oxo-1,5-naphthyridin-1(2H)-yl)ethyl)-2-oxabicyclo[2.2.2]octan-4-yl)amino)methyl)-2H-pyrido[3,2-b][1,4]oxazin-3(4H)-one] |
| 0.016 (≈ 0.0325 µM) | COc1cnc2ncc(=O)n(CCC34CCC(NCc5ccc6c(n5)NC(=O)CO6)(CC3)CO4)c2c1 [Example 121, 6-(((1-(2-(7-Methoxy-2-oxopyrido[2,3-b]pyrazin-1(2H)-yl)ethyl)-2-oxabicyclo[2.2.2]octan-4-yl)amino)methyl)-2H-pyrido[3,2-b][1,4]oxazin-3(4H)-one] |
| 0.016 | COc1ccc2ncc(F)c(CCC34CCC(NCc5ccc6c(n5)NC(=O)CO6)(CC3)CO4)c2c1.Cl [Example 125, 6-((1-(2-(3-Fluoro-6-methoxyquinolin-4-yl)ethyl)-2-oxabicyclo[2.2.2]octan-4-ylamino)methyl)-2H-pyrido[3,2-b][1,4]oxazin-3(4H)-one Hydrochloride] |
